Laboratory results published in patent EP0493782A2, “Novel dihydropyridine amides, process for their preparation and drugs containing them” (BAYER AG, priority 1991, dated 1992).

System: ANP-System
Experiment: Acute hypervolaemia model in the rat (volume load, urine collected over one hour)
Type: in vivo
Conditions: Ratte; for Steigerung der Na⁺-Ausscheidung: 10 mg/kg p.o. in Tylose-Suspension, acute volume load by 15 ml/kg physiological saline into the tail vein, urine collected over one hour
Excerpt: Die ausgewählten erfindungsgemäßen Verbindungen zeigen ein nicht vorhersehbares, wertvolles pharmakologisches Wirkspektrum. Im Vergleich zu strukturähnlichen, bekannten Dihydropyridinen wie z.B. in DOS 2 228 377 beschriebenen Vertretern, zeigen die erfindungsgemäßen Verbindungen sowohl quantitativ als auch qualitativ ein anderes Wirkungsspektrum. Neben ihrer calciumantagonistischen Wirkung steigern sie die ANP-abhängige Natriurese bei Stimulation des ANP-Systems durch Volumenbelastung. Diese zusätzliche Wirkkomponente wurde in einem Modell der akuten Hypervolämie an der Ratte nachgewiesen: Die Testsubstanzen wurden oral in Tylose-Suspension verabreicht. Durch Injektion von 15 ml/kg physiologischer Kochsalzlösung in die Schwanzvene wurde eine akute Volumenbelastung ausgelöst und anschließend der Urin über eine Stunde gesammelt. Unerwarteterweise verstärken die erfindungsgemäßen Verbindungen die Natriumausscheidung. Gleichzeitig wird die Ausscheidung von cGMP, das einen spezifischen Marker für die Aktivierung des ANP-Systems darstellt, erhöht (z.B. um 100 % bei Beispiel 19).

COC(=O)C1=C(C)NC(C)=C(C(=O)NC2CC2)C1c1ccccc1OCCCOc1ccccc1 (stereo not shown) [Beispiel 2]
Steigerung der Na⁺-Ausscheidung: 80%

COC(=O)C1=C(C)NC(C)=C(C(=O)NC2CC2)C1c1ccccc1OC(F)(F)F (stereo not shown) [Beispiel 19]
Steigerung der Na⁺-Ausscheidung: 100%
Ausscheidung von cGMP erhöht (oral in Tylose-Suspension, acute volume load by 15 ml/kg saline i.v., urine over one hour, dose not given): 100%

COC(=O)C1=C(C)NC(C)=C(C(=O)NC2CCCC2)C1c1ccccc1OC (stereo not shown) [Beispiel 11]
Steigerung der Na⁺-Ausscheidung: 95%
